The test system of this data set is HEK-CMV-Luc2-Hygro cells. Kind of data set: High-throughput genome-wide siRNA screen and validation screen for luciferase expression. The data set is classed as cell-based, human. Particulars: for Viable cell density (%) / per cell luciferase yield (%): Table 4, negative control = 100%; for Viable cell density (%) / per cell luciferase yield (%) / per_cell / VIA: primary screen, 72 h; for Luciferase activity (%) / Per cell luciferase yield (%) / Viable cell number (%): Table 6, polyamine pathway gene siRNAs; for per_cell / VIA: Table 3; for per_cell: per cell luciferase yield relative to negative control; for VIA: viable cell density as % of negative control. In outline: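 HEK cells with CMV-driven luciferase were reverse-transfected with 0.8 pmol siRNA per well (3 per gene) via RNAiMax and grown 72 h at 37 °C. Duplicate wells read for luciferase (ONE-Glo) and viability (CellTiter-Glo). Values given as % of plate negative-control median with MAD-based z-scores; hits with ≥2 siRNAs at z>3 retested using 3 new siRNAs.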

Regarding “130 (GGAGGAAUCUCGAAUGCGATT; chemistry not given here; listed as Homo sapiens) [compound 130]”, the “Viable cell density (%)” value is 96.002% and the “per cell luciferase yield (%)” value is 173.284%.

For “212 (GAGCAGAGAUCAUAACCAATT; chemistry not given here; listed as Homo sapiens) [compound 212]”, the “Viable cell density (%)” value is on record as 108.211% and the “per cell luciferase yield (%)” value worked out at 141.104%.

Turning to “165 (AGGUCAAUGUGACUUUCCATT; chemistry not given here; listed as Homo sapiens) [compound 165]”, the “Viable cell density (%)” value worked out at 105.029% and the “per cell luciferase yield (%)” value is 161.785%.

For the substance “213 (GGCUGAAUGUAACAGAGGATT; chemistry not given here; listed as Homo sapiens) [compound 213]”, the “Luciferase activity (%)” value was 127.6%, the “Per cell luciferase yield (%)” value amounted to 134.5% and the “Viable cell number (%)” value stood at 94.9%.

Substance “84 (GGCUGUACAUAGUCCUUUUTT; chemistry not given here; listed as Homo sapiens) [compound 84]” gave a per_cell of 238.5 and a VIA of 66.39.

Regarding “134 (GAUCGUUUGAGAGAACAAATT; chemistry not given here; listed as Homo sapiens) [compound 134]”, the “Viable cell density (%)” value came out at 77.107% and the “per cell luciferase yield (%)” value came to 210.336%.

Turning to “150 (CGCUUUAACUGGAAGCUCUTT; chemistry not given here; listed as Homo sapiens) [compound 150]”, the “Viable cell density (%)” value is recorded as 103.662% and the “per cell luciferase yield (%)” value is given as 146.993%.

As to “56 (CAACGGGACUAUUAUGAUATT; chemistry not given here; listed as Homo sapiens) [compound 56]”, the per_cell turned out to be 163.5 and the VIA was 97.39.

The substance “67 (GGAUGACGAGCUGAACUUUTT; chemistry not given here; listed as Homo sapiens) [compound 67]” gave a per_cell of 140.1 and a VIA of 113.4.

For the substance “86 (CAUUGGUUUUGAUGAGUAUTT; chemistry not given here; listed as Homo sapiens) [compound 86]”, the per_cell is recorded as 226.7 and the VIA came to 64.38.

As to “118 (UGUGGACUGAGGUACCCAATT; chemistry not given here; listed as Homo sapiens) [compound 118]”, the “Viable cell density (%)” value was determined as 58.901% and the “per cell luciferase yield (%)” value turned out to be 247.842%.

Take “141 (AGAGGACCCAGAUUGUCUATT; chemistry not given here; listed as Homo sapiens) [compound 141]”: the “Viable cell density (%)” value is 97.298% and the “per cell luciferase yield (%)” value came out at 183.386%.

“54 (GCAUCUGUCCGAUCGCUCUTT; chemistry not given here; listed as Homo sapiens) [compound 54]” came in with a per_cell of 143.9 and a VIA of 105.5.

With “194 (CAUCAAGCCCUGUAAGUCUTT; chemistry not given here; listed as Homo sapiens) [compound 194]”, the “Viable cell density (%)” value stood at 89.583% and the “per cell luciferase yield (%)” value is 163.431%.

Take “227 (CGAUGAACAUGUUAGACAUTT; chemistry not given here; listed as Homo sapiens) [compound 227]”: the “Luciferase activity (%)” value was determined as 30.4%, the “Per cell luciferase yield (%)” value is 42.2% and the “Viable cell number (%)” value is reported as 72.1%.

For the substance “184 (GCCUGAAUCUUGUCCCAAATT; chemistry not given here; listed as Homo sapiens) [compound 184]”, the “Viable cell density (%)” value is 82.390% and the “per cell luciferase yield (%)” value stood at 228.483%.

Consider “88 (GAGCAGAGAUCAUAACCAATT; chemistry not given here; listed as Homo sapiens) [compound 88]”, for which the per_cell is 141.1 and the VIA turned out to be 108.2.

As to “201 (CCCUGAAGGUUACCUCUUUTT; chemistry not given here; listed as Homo sapiens) [compound 201]”, the “Viable cell density (%)” value is 63.690% and the “per cell luciferase yield (%)” value came to 273.535%.

As for “153 (CACUUUCCUGGGUAUUGUATT; chemistry not given here; listed as Homo sapiens) [compound 153]”, the “Viable cell density (%)” value amounted to 87.831% and the “per cell luciferase yield (%)” value turned out to be 171.072%.

“100 (GAACGAGUACAGCAAUAUATT; chemistry not given here; listed as Homo sapiens) [compound 100]”: the “Viable cell density (%)” value was found to be 108.214% and the “per cell luciferase yield (%)” value is on record as 140.868%.

Take “206 (GCUCCUCUGUUACCACAGATT; chemistry not given here; listed as Homo sapiens) [compound 206]”: the “Viable cell density (%)” value was found to be 91.526% and the “per cell luciferase yield (%)” value worked out at 179.268%.

“57 (GAACGAGUACAGCAAUAUATT; chemistry not given here; listed as Homo sapiens) [compound 57]” registered a per_cell of 140.9 and a VIA of 108.2.

As to “169 (GCGGAAAAGGUAUCCCUCATT; chemistry not given here; listed as Homo sapiens) [compound 169]”, the “Viable cell density (%)” value is listed as 80.173% and the “per cell luciferase yield (%)” value is given as 184.608%.

For “187 (AGAAAGCUUUGGGCAAAUATT; chemistry not given here; listed as Homo sapiens) [compound 187]”, the “Viable cell density (%)” value was determined as 75.570% and the “per cell luciferase yield (%)” value was determined as 200.070%.

“38 (GCAGUGGACAUAGAAGAGATT; chemistry not given here; listed as Homo sapiens) [compound 38]” showed a per_cell of 140.7 and a VIA of 110.8.

As to “188 (GGAAGAACGUCUUGCACAATT; chemistry not given here; listed as Homo sapiens) [compound 188]”, the “Viable cell density (%)” value is on record as 85.471% and the “per cell luciferase yield (%)” value was found to be 183.071%.

For the substance “154 (CAACAGUACUUACCGAUGUTT; chemistry not given here; listed as Homo sapiens) [compound 154]”, the “Viable cell density (%)” value is recorded as 115.513% and the “per cell luciferase yield (%)” value is reported as 141.760%.

Consider “168 (GCUUCCUCUUGGACCUCAATT; chemistry not given here; listed as Homo sapiens) [compound 168]”, for which the “Viable cell density (%)” value amounted to 78.156% and the “per cell luciferase yield (%)” value came to 185.175%.

Regarding “48 (GCAAUGCUUGCAAAACUCATT; chemistry not given here; listed as Homo sapiens) [compound 48]”, the per_cell is reported as 189.3 and the VIA turned out to be 90.98.

Regarding “106 (GCUCAUCGACAUCAAAGUUTT; chemistry not given here; listed as Homo sapiens) [compound 106]”, the “Viable cell density (%)” value amounted to 97.007% and the “per cell luciferase yield (%)” value came to 170.088%.

On to “195 (UGAAGAUAAUCGAGAAAUATT; chemistry not given here; listed as Homo sapiens) [compound 195]”, for which the “Viable cell density (%)” value was found to be 67.947% and the “per cell luciferase yield (%)” value is on record as 258.104%.

In the case of “183 (CAACAGAUCAGAGAACAAATT; chemistry not given here; listed as Homo sapiens) [compound 183]”, the “Viable cell density (%)” value was 92.429% and the “per cell luciferase yield (%)” value turned out to be 156.418%.

Regarding “127 (CCAACUACCUGAACGAUGATT; chemistry not given here; listed as Homo sapiens) [compound 127]”, the “Viable cell density (%)” value is listed as 54.133% and the “per cell luciferase yield (%)” value is listed as 311.348%.

Take “160 (GGACCAAGCCCUAAAGGAATT; chemistry not given here; listed as Homo sapiens) [compound 160]”: the “Viable cell density (%)” value was 68.989% and the “per cell luciferase yield (%)” value is listed as 220.902%.

Regarding “189 (GAACAAAAUAGACCUCUUATT; chemistry not given here; listed as Homo sapiens) [compound 189]”, the “Viable cell density (%)” value worked out at 101.897% and the “per cell luciferase yield (%)” value is 162.677%.

Turning to “66 (GCAACAGAAUCGAGCAAGATT; chemistry not given here; listed as Homo sapiens) [compound 66]”, the per_cell was found to be 154.3 and the VIA was found to be 105.6.

“215 (GCUAACUUAUUCUACUCCGTT; chemistry not given here; listed as Homo sapiens) [compound 215]”: the “Luciferase activity (%)” value stood at 171.1%, the “Per cell luciferase yield (%)” value is on record as 154.7% and the “Viable cell number (%)” value is reported as 110.6%.

On to “101 (GUUCAUCCAUAAGUACAUUTT; chemistry not given here; listed as Homo sapiens) [compound 101]”, for which the “Viable cell density (%)” value is given as 83.129% and the “per cell luciferase yield (%)” value is listed as 238.606%.

“52 (GGAAGAACGUCUUGCACAATT; chemistry not given here; listed as Homo sapiens) [compound 52]” registered a per_cell of 183.1 and a VIA of 85.47.

Consider “95 (CAAGUCACCUGUUACCUCATT; chemistry not given here; listed as Homo sapiens) [compound 95]”, for which the “Viable cell density (%)” value worked out at 88.955% and the “per cell luciferase yield (%)” value was 171.805%.

“40 (CGAUGUUCGUGGACAUUCUTT; chemistry not given here; listed as Homo sapiens) [compound 40]”: the per_cell was determined as 234.6 and the VIA is listed as 80.01.

The values are drawn from US20160319277A1, “METHODS OF IMPROVED PROTEIN PRODUCTION USING MIRNAs AND SIRNAs” (THE JOHNS HOPKINS UNIVERSITY, priority 2015, published 2016).
